Test results: patent US20050192337A1, “Processes and polymorphs of diaryl-indolone galr3 antagonists” (priority 2002, published 2005)

Legend:
Type in all cases: physicochemical
[1] = Stress studies of Compound I (heat stress, XRPD of resulting solid); settings: for Stability to heat stress: Table 7
Method: (§1) X-ray powder diffraction (XRPD) analyses were performed using a Shimadzu XRD-6000 X-ray powder diffractometer using Cu Kα radiation. The instrument was equipped with a fine focus X-ray tube. The tube voltage and amperage were set to 40 kV and 40 mA, respectively. The divergence and scattering slits were set at 1° and the receiving slit was set at 0.15 mm. Diffracted radiation was detected by a NaI scintillation detector. A theta-two theta continuous scan at 3°/min (0.4 sec/0.02° step) from 2.5 to 40° 2θ was used. A silicon standard was analyzed to check the instrument alignment. Data were collected and analyzed using XRD-6000 v. 4.1. Samples were prepared for analysis by placing them in a silicon sample holder or aluminum holder with silicon insert. X-ray powder diffraction (XRPD) analyses were also performed using an Inel XRG-3000 diffractometer equipped with a CPS (Curved Position Sensitive) detector with a 2θ range of 120°. Real time data were collected using Cu-Kα radiation starting at approximately 4° 2θ at a resolution of 0.03° 2θ. The tube voltage and amperage were set to 40 kV and 30 mA, respectively. The monochromator slit was set at 5 mm by 80 μm. […] Samples were prepared for analysis by packing them into thin-walled glass capillaries. Each capillary was mounted onto a goniometer head that is motorized to permit spinning of the capillary during data acquisition. The samples were analyzed for 5 min. Instrument calibration was performed using a silicon reference standard.
(§2) All three polymorphs are also non-hygroscopic, as indicated by the data in Table 8.

[2] = Slurry experiments on Compound I crystalline forms (XRPD); settings: for Conversion upon stirring as a slurry in an organic solvent: a few hours to several days, Tables 9 and 10
Method: as §1, §2
Form I can be obtained in a straightforward fashion by stirring a slurry of any solid form of Compound I, and particularly Form II or III, in an organic solvent in which Compound I is partially soluble, for several hours until the material converts completely to Form I. Formation of Form I can be analyzed through DSC or, preferably, XRPD analysis. In one embodiment of the invention, a slurry of solid Compound I in an organic solvent is generated by cooling a hot, saturated solution of Compound I in an organic solvent, allowing crystals to form, then stirring the resulting slurry for several hours or a few days until the solid material converts substantially or completely to Form I. In a preferred embodiment, the hot, saturated solution of Compound I is generated in situ in the one-pot synthetic process described above. Form I can also be prepared by slurrying for several hours Compound I, Form II in a saturated methanol solution or in an appropriate solvent.

[3] = Moisture sorption/desorption (moisture balance) of Compound I forms
[4] = Interconversion experiments of Compound I (slurry of mixed forms, XRPD); settings: 25° C.
Method: as §1, with “Each capillary was mounted onto a goniometer head that is motorized to permit spinning of the capillary during data acquisition.” left out, “Instrument calibration was performed using a silicon reference standard.” left out

[5] = Differential scanning calorimetry, relative stability of forms on heating; settings: high temperatures, DSC 1° C./min
Method: Differential scanning calorimetry (DSC) was performed using a TA Instruments differential scanning calorimeter 2920. The sample was placed into an aluminum DSC pan, and the weight accurately recorded. The pan was covered with a lid and left uncrimped. Each sample was equilibrated at 25° C. and heated under a nitrogen purge at a rate of 10 or 20° C./min, up to a final temperature of 270° C. or 350° C. Samples were also heated at 1 or 5° C./min up to 150° C.

| Structure (SMILES) | Result (XRPD form after stress) ([1]; 80 C., 4 days) | Stability to heat stress [1] | Conversion upon stirring as a slurry in an organic solvent [2] | Hygroscopicity [3] | Moisture Balance Results: weight loss at 5% RH ([3]; 5% RH) | Moisture Balance Results: total weight gain at 95% RH [3] [% total weight gain at] | XRPD Results after slurry ([2]; MeOH, ambient, 11 d) | further results |
| --- | --- | --- | --- | --- | --- | --- | --- | --- |
| O=C1C(=Nc2cccc(C(F)(F)F)c2)c2ccccc2N1c1ccccc1 (racemic) [Form III, 1-phenyl-3-[[3-(trifluoromethyl)phenyl]imino]-1H-indol-2-one] | III (SS) | relatively stable to heat stress | convert to Form I | nonhygroscopic | <0.1% weight loss at 5% RH, |  |  | Result (XRPD form after stress) ([1]; 60 C., 4 days): III (SS); Result (XRPD form after stress) ([1]; 70 C., 4 days): III (SS); Moisture Balance Results: total weight gain at 95% RH ([3]; listed as III): <0.1% total weight gain at |
| O=C1C(=Nc2cccc(C(F)(F)F)c2)c2ccccc2N1c1ccccc1 (racemic) [amorphous, 1-phenyl-3-[[3-(trifluoromethyl)phenyl]imino]-1H-indol-2-one] |  |  |  |  |  | 0.3 |  | Result (XRPD form after stress) ([1]; 60 C./17 hours): III (LC); Moisture Balance Results: weight gain at 5% RH ([3]; 5% RH): <0.1% weight gain at 5% RH,; XRPD Results on solid after moisture balance run ([3]; after moisture balance run): amorphous |
| O=C1/C(=N\c2cccc(C(F)(F)F)c2)c2ccccc2N1c1ccccc1 [Compound I, 1-phenyl-3-[[3-(trifluoromethyl)phenyl]imino]-1H-indol-2-one] |  |  |  |  | <0.1% weight loss at 5% RH, | <0.1 | I (PO) |  |
| O=C1/C(=N\c2cccc(C(F)(F)F)c2)c2ccccc2N1c1ccccc1 [Form I, 1-phenyl-3-[[3-(trifluoromethyl)phenyl]imino]-1H-indol-2-one] |  | relatively stable to heat stress | remains unchanged | nonhygroscopic |  |  |  | Relative stability of forms [4]: more stable than either Form II or III |
| O=C1/C(=N\c2cccc(C(F)(F)F)c2)c2ccccc2N1c1ccccc1 [Form II, 1-phenyl-3-[[3-(trifluoromethyl)phenyl]imino]-1H-indol-2-one] | II (PO) + peak@5° 2θ | relatively stable to heat stress | convert to Form I |  | <0.1% weight loss at 5% RH, | <0.1 | I (PO) | Relative stability of forms [5]: more stable than Form I; XRPD Results after slurry ([2]; Experiment 3, MeOH, 25° C., 1 hour): II + I (minor); XRPD Results after slurry ([2]; Experiment 4, MeOH, 25° C., 1 hour): I + II; XRPD Results after slurry ([2]; Experiment 4, MeOH, 25° C., 1 hour 20 min): I + II; XRPD Results after slurry ([2]; Experiment 4, MeOH, 25° C., 1 hour 40 min): I + II (minor) |
